Measured values as given in patent US20240101602A1, “ANTIMICROBIAL PEPTIDES AND METHOD OF PREVENTING OR TREATING INFECTION BY USING THE SAME” (priority 2020, published 2024).
In brackets after ≈: the same amount, converted by molar mass. Read-outs that look alike come from different tables or passages of the source. Residues, ends and D or L forms follow the SMILES beside them. *: point of attachment. Myristoyl = CCCCCCCCCCCCCC(=O)*

Assays:
Eco DH5α = assay: MIC and MBC by serial dilution in 96-well plate; type: cell-based, Escherichia coli
Experimental: (§1) The effect of peptide length on the antimicrobial activity was investigated by deciding the minimal inhibitory concentration (MIC) and minimal bactericidal concentration (MBC) for each peptide against the pathogen with the media and growth conditions of phytopathogenic bacteria and E. coli as described in Table 1. Single bacterial colony grown on an optimal rich agar medium was picked, and each grew in 3 mL of the same rich liquid medium for 4 to 6 h.
(§2) For experiments carried out in the rich medium, the bacterial broth culture was then diluted in the same medium to give a final concentration of OD600=0.08, and then further diluted 100 folds in the same medium.
(§3) For experiments carried out in the minimal medium, the bacterial cells were collected from the bacterial liquid culture by centrifugation, re-suspended in an optimal minimal medium to give a final concentration of OD600=0.08, and then further diluted 100 folds in the same minimal medium.
(§4) Fifty microliters of serially diluted peptides (2-fold the final concentration) were added in a 96-well polystyrene plate with 50 μL of the bacterial culture. The final concentrations of peptides were 0, 2, 4, 8, 16 and 32 μg/mL. The plates were incubated at an optimal temperature without shaking.
(§5) MBC was determined as the lowest peptide concentration at which no colonies formed.

[1] = test system: Xanthomonas campestris pv. campestris strain Xcc17; assay: MIC and MBC by serial dilution in 96-well plate; type: cell-based; settings: Xcc Xcc17; Table 7
Experimental: as §1, §2, §3, §4, §5

[2] = test system: Xanthomonas euvesicatoria strain Xvt28; assay: MIC and MBC by serial dilution in 96-well plate; type: cell-based; settings: Xev Xvt28; Table 7
Experimental: as §1, §2, §3, §4, §5

Erwinia chrysanthemi = type: cell-based
Experimental: (§6) The effect of peptide length on the antimicrobial activity was investigated by deciding the minimal inhibitory concentration (MIC) and minimal bactericidal concentration (MBC) for each peptide against the pathogen with the media and growth conditions of phytopathogenic bacteria and E. coli as described in Table 1. Single bacterial colony grown on an optimal rich agar medium was picked, and each grew in 3 mL of the same rich liquid medium for 4 to 6 h. For experiments carried out in the rich medium, the bacterial broth culture was then diluted in the same medium to give a final concentration of OD600=0.08, and then further diluted 100 folds in the same medium. For experiments carried out in the minimal medium, the bacterial cells were collected from the bacterial liquid culture by centrifugation, re-suspended in an optimal minimal medium to give a final concentration of OD600=0.08, and then further diluted 100 folds in the same minimal medium. Fifty microliters of serially diluted peptides (2-fold the final concentration) were added in a 96-well polystyrene plate with 50 μL of the bacterial culture. […] The plates were incubated at an optimal temperature without shaking. […] MBC was determined as the lowest peptide concentration at which no colonies formed. The experiments were conducted in an optimal minimal medium for each pathogen. The media and growth conditions were described in Tables 2 and 3. MIC and MBC values were determined following the procedures described above. […] Fifty microliters of serially diluted peptides (2-fold the final concentration) were added in a 96-well polystyrene plate with 50 μL of the fungal spore suspension.

[3] = test system: Pectobacterium carotovorum subsp. carotovorum; type: cell-based
Experimental: as §6

Botrytis cinerea = type: cell-based; settings: Bc; optimal minimal medium, crude peptides (Table 9)
Experimental: (§7) The experiments were conducted in an optimal minimal medium for each pathogen. The media and growth conditions were described in Tables 2 and 3. MIC and MBC values were determined following the procedures described above. […] Fifty microliters of serially diluted peptides (2-fold the final concentration) were added in a 96-well polystyrene plate with 50 μL of the fungal spore suspension. […] The plates were incubated at an optimal temperature without shaking. […] MFC was determined as the lowest peptide concentration at which no fungal growth was observed.

Cgl FST02 = type: cell-based, Colletotricum gloeosporioides; settings: Cgl FST02; optimal minimal medium, crude peptides (Table 9)
Experimental: as §7

[4] = test system: bacteria, fungal spores, and fungal mycelia; type: cell-based; settings: SYTOX Green, crude peptides, room temperature in dark for 2 h
[5] = test system: Xanthomonas oryzae pv. oryzae strain Xoo28; settings: Xoo Xoo28; Table 7
[6] = test system: Agrobacterium tumefaciens strain Atu C58C1
[7] = test system: Pseudomonas syringae pv. tomato strain DC3000
[8] = test system: Pseudomonas syringae pv. syringae strain B728a; settings: Pss B728a; Table 7
[9] = test system: Ralstonia solanacearum strain Pss4; settings: Rs Pss4; optimal minimal medium, crude peptides (Table 9)
[10] = test system: Ralstonia solanacearum strain Pss190; settings: Rs Pss190; optimal minimal medium, crude peptides (Table 9)
[11] = test system: Klebsiella pneumonia NTUH-K2044
[12] = test system: Staphylococcus aureus BCRC 10777
[13] = test system: Staphylococcus epidermidis ATCC 14990
[14] = test system: Xanthomonas campestris pv. campestris strain Xcc17; assay: IC50 of bacterial growth (OD600) in rich liquid medium; type: cell-based; settings: Xcc Xcc17, 24 h, purified peptides
Experimental: (§8) To measure the antimicrobial activity, single colony grown on an optimal rich agar medium for each bacterium was picked and grew in 3 mL of the same rich liquid medium for 4 to 6 h. The bacterial culture was then diluted in the same medium to give a final concentration of OD600=0.08 and then further diluted […] in the same medium. In each well of a 96-well polystyrene plate, 90 μL of the diluted culture was mixed with 10 μL of the peptide to give a peptide concentration of 0, 2, 10, and 20 μg/mL (final cell concentration is 5×10^5 CFU/mL). OD600 was measured after incubation at an optimal temperature for 24 h. IC50 was determined as the lowest peptide concentration inhibiting 50% of bacterial growth.

[15] = test system: Xanthomonas euvesicatoria strain Xvt28; assay: as above; type: cell-based; settings: Xev Xvt28, 24 h, purified peptides
Experimental: as §8

[16] = test system: Escherichia coli strain DH5a; settings: 24 h
[17] = test system: Xanthomonas oryzae pv. oryzae strain Xoo28; settings: Xoo Xoo28; rich medium, 24 h, purified peptides
[18] = test system: Agrobacterium tumefaciens strain Atu C58C1; settings: rich medium, 24 h, purified peptides
Candida albicans SC5314 = settings: Candida albicans SC5314; 48 h at 35° C., 0.125 to 64 μg/mL (Table 5)
[19] = test system: Acinetobacter baumannii ATCC 17978
[20] = Circular dichroism spectroscopy, secondary structure deconvolution; settings: dissolved in water, structural deconvolution of CD spectra
[21] = Eco DH5α, rich medium, purified peptides

## Ac-WKKLKKLLKKLKKL-NH2 [pepD2]
Eco DH5α; Table 7
  MBC: 7.0 mg/L
  MIC: 4.3 mg/L
Eco DH5α; Table 13
  MBC: 8.0 mg/L
  MIC: 8.0 mg/L
[1]
  MBC: 1.0 mg/L
  MIC: 1.0 mg/L
[2]
  MBC: 3.5 mg/L
  MIC: 3.0 mg/L
Erwinia chrysanthemi
  MBC: 32.0 mg/L
  MBC/MFC: 21.3 mg/L
[3]
  MBC: 18.8 µg/mL
  MBC/MFC: 8.0 mg/L
[3]; Pcc, Table 13
  MBC: 6.7. μg/mL
Botrytis cinerea
  MBC/MFC: — (“—” indicates no antimicrobial activity being detected at the highest peptide concentration (32 μg/mL) tested in this study.)
  MIC: — (“—” indicates no antimicrobial activity being detected at the highest peptide concentration (32 μg/mL) tested in this study.)
Cgl FST02
  MBC/MFC: — (“—” indicates no antimicrobial activity being detected at the highest peptide concentration (32 μg/mL) tested in this study.)
  MIC: — (“—” indicates no antimicrobial activity being detected at the highest peptide concentration (32 μg/mL) tested in this study.)
[4]
  membranolytic effect on the cell walls of bacteria, fungal spores, and fungal mycelia: significant membranolytic effect
[5]
  MBC: 6.0 mg/L
  MIC: 5.0 mg/L
[6]
  MBC: 2.2 mg/L
  MIC: 1.6 mg/L
[7]
  MBC: 8.8 mg/L
  MIC: 4.8 mg/L
[8]
  MBC: 14.7 mg/L
  MIC: 6.0 mg/L
[9]
  MBC/MFC: — (“—” indicates no antimicrobial activity being detected at the highest peptide concentration (32 μg/mL) tested in this study.)
  MIC: — (“—” indicates no antimicrobial activity being detected at the highest peptide concentration (32 μg/mL) tested in this study.)
[10]
  MBC/MFC: — (“—” indicates no antimicrobial activity being detected at the highest peptide concentration (32 μg/mL) tested in this study.)
  MIC: — (“—” indicates no antimicrobial activity being detected at the highest peptide concentration (32 μg/mL) tested in this study.)
[11]
  MBC: 16 mg/L
  MIC: 16 mg/L
[12]
  MBC: 16 mg/L
  MIC: 16 mg/L
[13]
  MBC: 32 mg/L
  MIC: 16 mg/L

## Ac-WKLLKKLLKKLKKLLKKL-NH2 [pepC]
[14]
  IC50: 10.0 mg/L
[15]
  IC50: 8.0 mg/L
[16]; [21]
  IC50: 10.0 mg/L
[17]
  IC50: 12.5 mg/L
[18]
  IC50: 12.5 mg/L
Candida albicans SC5314
  MIC: 32.0 mg/L

## CCCCCCCCCCCCCC(=O)N[C@@H](Cc1c[nH]c2ccccc12)C(=O)N[C@@H](CCCCN)C(=O)N[C@@H](CCCCN)C(=O)N[C@H](C(=O)N[C@@H](CCCCN)C(=O)N[C@@H](CCCCN)C(=O)N[C@H](C(=O)N[C@H](C(=O)N[C@@H](CCCCN)C(=O)N[C@@H](CCCCN)C(=O)N[C@H](C(=O)N[C@@H](CCCCN)C(=O)N[C@@H](CCCCN)C(=O)N[C@H](C(N)=O)[C@@H](C)CC)[C@@H](C)CC)[C@@H](C)CC)[C@@H](C)CC)[C@@H](C)CC [pepI2M] (Myristoyl-WKKIKKIIKKIKKI-NH2)
[19]
  MBC: 32 mg/L (≈ 16 µM)

## WKLLKLLLKLLKLLLKLL [pepA]
[14]
  IC50: — (“—” indicates no antimicrobial activity being detected at the highest peptide concentration (20 μg/mL) tested in this study.)
[15]
  IC50: — (“—” indicates no antimicrobial activity being detected at the highest peptide concentration (20 μg/mL) tested in this study.)
[16]; [21]
  IC50: — (“—” indicates no antimicrobial activity being detected at the highest peptide concentration (20 μg/mL) tested in this study.)
[17]
  IC50: — (“—” indicates no antimicrobial activity being detected at the highest peptide concentration (20 μg/mL) tested in this study.)
[18]
  IC50: — (“—” indicates no antimicrobial activity being detected at the highest peptide concentration (20 μg/mL) tested in this study.)
Candida albicans SC5314
  MIC: — (“—” indicates no antimicrobial activity being detected at the highest peptide concentration (64 μg/mL) tested.)
[20]
  α-helix content: over 90%

## CCCCCCCCCCCCCC(=O)N[C@@H](Cc1c[nH]c2ccccc12)C(=O)N[C@@H](CCCCN)C(=O)N[C@@H](CCCCN)C(=O)N[C@H](C(=O)N[C@@H](CCCCN)C(=O)N[C@@H](CCCCN)C(=O)N[C@H](C(=O)N[C@H](C(=O)N[C@@H](CCCCN)C(=O)N[C@@H](CCCCN)C(=O)N[C@H](C(=O)N[C@@H](CCCCN)C(=O)N[C@@H](CCCCN)C(=O)N[C@H](C(N)=O)C(C)C)C(C)C)C(C)C)C(C)C)C(C)C [pepV2M] (Myristoyl-WKKVKKVVKKVKKV-NH2)
[19]
  MBC: 16 mg/L (≈ 8.27 µM)
[12]
  MBC: 16 mg/L (≈ 8.27 µM)
  MIC: 8 mg/L (≈ 4.14 µM)
[13]
  MBC: 16 mg/L (≈ 8.27 µM)
  MIC: 16 mg/L (≈ 8.27 µM)

## CCCCCCCCCCCCCC(=O)N[C@@H](Cc1c[nH]c2ccccc12)C(=O)N[C@@H](CCCCN)C(=O)N[C@@H](CCCCN)C(=O)N[C@H](C(=O)N[C@@H](CCCCN)C(=O)N[C@@H](CCCCN)C(=O)N[C@@H](CC(C)C)C(=O)N[C@H](C(=O)N[C@@H](CCCCN)C(=O)N[C@@H](CCCCN)C(=O)N[C@@H](CC(C)C)C(N)=O)C(C)C)C(C)C [pepD3(V)M] (Myristoyl-WKKVKKLVKKL-NH2)
[19]
  MBC: 16 mg/L (≈ 9.95 µM)
[12]
  MBC: 16 mg/L (≈ 9.95 µM)
  MIC: 16 mg/L (≈ 9.95 µM)
[13]
  MBC: 16 mg/L (≈ 9.95 µM)
  MIC: 16 mg/L (≈ 9.95 µM)

## Ac-WKLKLKLKLKLKLKLKLK-NH2 [pepE]
[14]
  IC50: 4.0 mg/L
[15]
  IC50: 2.0 mg/L
[16]; DH5a
  IC50: 10.0 mg/L
[17]
  IC50: 7.3 mg/L
[18]
  IC50: 20.0 mg/L
Candida albicans SC5314
  MIC: — (“—” indicates no antimicrobial activity being detected at the highest peptide concentration (64 μg/mL) tested.)
